Data from paper PMC10101232, “Population pharmacokinetics of vancomycin in very low birth weight neonates” (Frontiers in Pediatrics, 2023).
Where two headings read alike, the source gives them in different places.

Legend:
[1] = model from 10 VLBW neonates, 10 mg/kg every 8 h, ref Kato et al. [16]; cited from earlier work
Source text: The most commonly used tertiary dosing references present vancomycin dosing recommendations for neonates considering only one or two of these variables. For example, Micromedex NeoFax recommends dosing based on a combination of PMA and PNA, pediatric and neonatal Lexicomp recommends two different dosing strategies, one based on a combination of PMA and PNA and the other based on a combination of GA and Scr (Table 1). As a result, the daily doses can differ widely by up to 50% between these studies. Studies have reported that the probability of achieving vancomycin therapeutic targets in neonat ... || To date, only two studies with very small sample size have evaluated the optimal vancomycin dosing in VLBW neonates ([16], [17]). Kato et al. ([16]) recommended a vancomycin dose of 10 mg/kg every 8 h as the initial dosage regimen for vancomycin in VLBW neonates. This model predicted vancomycin therapeutic target achievement in 86.7% of neonates. However, they developed their model based on data from only 10 VLBW neonates, and the simulations were not divided into categories according to Scr and PMA. The major difference between our findings and the Kato et al. model is that for most groups, e ...

[2] = Vancomycin population pharmacokinetic model (one-compartment, Monolix) from serum concentrations in VLBW neonates
Description: Data were retrieved for VLBW neonates (0–30 days old) who were admitted to the NICU and received vancomycin for proven or suspected MRSA or MRCONS infections. Patients were included if they received vancomycin for more than 48 h and had at least one vancomycin serum trough concentration measurement in a steady state. The collected data included PNA, PMA, weight, Scr, vancomycin dose, frequency and concentrations. […] Subsequent dose adjustments were guided by the vancomycin trough concentrations. In King Saud University Medical City, both vancomycin peak and trough concentrations were obtained for therapeutic drug monitoring. In all other hospitals, the practice was to collect trough concentrations only. Peak samples were collected 1 h after the end of infusions, and trough concentrations were collected 30 min before the next dose in a steady state. Exclusion criteria were: renal failure, receiving hemodialysis, missing dosing information and those sampled before the steady state were excluded.
One hospital used a chemiluminescent microparticle immunoassay with an Architect i4000SR immunoassay analyzer (Abbott), two hospitals used the kinetic interaction of microparticles in solution (KIMS) with a Cobas c system (Roche/Hitachi), and three hospitals used the homogeneous particle-enhanced turbidimetric inhibition immunoassay (PETINIA) with an Alinity c analyzer (Abbott). The assay range for the Architect immunoassay is from 0.5 to 83 µg/ml, the range for the KIMS assay is 4–80 µg/ml, and the range for the PETINIA is 1.4–100 µg/ml. For the Scr assays, four centers used the Jaffe method, and two centers used the enzymatic method.
We split the data randomly into the training (70%) and validation (30%) data sets. […] Pharmacokinetic modeling was performed using the Monolix software (2020R1) with the stochastic approximation expectation maximization algorithm.
First, we developed a structural model for vancomycin. This included testing one- and two-compartment models with linear and nonlinear elimination. For the between-subject variability in pharmacokinetic parameters, we used the following lognormal distribution: pi=p.exp⁡(ηi), where pi is the individual pharmacokinetic estimate for the i^th individual, p is the median value of the pharmacokinetic parameter, and ηi is the standard deviation for the i^th individual with a mean of 0 and variance ω^2. For residual unexplained variability, we tested different statistical models, including the constant, proportional, and combined error models. As different assays were used for vancomycin, we tested having different residual variability models accordingly.
After we developed the base model, we evaluated the effect of covariates on pharmacokinetic parameters. […]

[3] = cited from earlier work; for risk of nephrotoxicity: adults, ref [30]

## CN[C@H](CC(C)C)C(=O)N[C@H]1C(=O)N[C@@H](CC(N)=O)C(=O)N[C@H]2C(=O)N[C@H]3C(=O)N[C@H](C(=O)N[C@H](C(=O)O)c4cc(O)cc(O)c4-c4cc3ccc4O)[C@H](O)c3ccc(c(Cl)c3)Oc3cc2cc(c3O[C@@H]2O[C@H](CO)[C@@H](O)[C@H](O)[C@H]2O[C@H]2C[C@](C)(N)[C@H](O)[C@H](C)O2)Oc2ccc(cc2Cl)[C@H]1O [vancomycin]
[1]
  predicted vancomycin therapeutic target achievement: 86.7%
[2]; VLBW neonate weighing 0.93 kg, PMA 26 weeks, Scr 0.6 mg/dl
  typical Cl value: 0.09 L/h
[2]; final model
  TMA50 (PMA at which CL is 50% of the mature value): 26.3 weeks
[2]; final population PK model, VLBW neonates, training data set N = 162
  Cl (total body clearance), estimate: 0.09 L/h
[2]; final population PK model, VLBW neonates, training data set N = 162, typical value at 0.93 kg
  V (volume of distribution), estimate: 0.81 L
[3]; VLBW neonates, ref Madigan et al. [41]
  probable vancomycin-related nephrotoxicity, neonates affected: two out of 57
[3]; troughs >20 µg/ml
  risk of nephrotoxicity: approximately 30%
[3]; troughs between 15 and 20 µg/ml
  risk of nephrotoxicity: approximately 15%
[3]; infants, ref Viel-Thériault et al. [42]
  nephrotoxicity, patients: 6%
[3]; neonatal intensive care unit, ref Bhargava et al. [39]
  subjects who developed nephrotoxicity: three out of 110
[3]; neonates, ref Tang et al. [43]
  AUC0−24 cutoff as a predictor of nephrotoxicity: > 485 µg·h/mL
  neonates who developed nephrotoxicity: seven out of 182
